The text below walks through data of ChEMBL document CHEMBL5131445, “Optimization of a novel piperazinone series as potent selective peripheral covalent BTK inhibitors” (Bioorg Med Chem Lett, 2022).

Values after ≈ are worked out from the molar mass of the structure shown.

For orientation: clearance means the volume of plasma or blood freed of the substance per unit of time. Higher therefore signals a high capacity for elimination. A word on the Kd: it is the free concentration of one partner at which half of the binding sites on the other are occupied at equilibrium, for simple one-to-one binding. For orientation: fraction unbound means free concentration divided by total concentration. Usually IC50 stands for the concentration that gives 50% inhibition.

Data set [1] in a line: Clearance in iv dosed Sprague-Dawley rat. Type of data set: ADME, organism-based. The settings on record: in vivo.
For data set [2], the target named is T1, Tyrosine-protein kinase ITK/TSK (Homo sapiens, UniProt Q08881).
T1 sequence (Q08881 whole entry): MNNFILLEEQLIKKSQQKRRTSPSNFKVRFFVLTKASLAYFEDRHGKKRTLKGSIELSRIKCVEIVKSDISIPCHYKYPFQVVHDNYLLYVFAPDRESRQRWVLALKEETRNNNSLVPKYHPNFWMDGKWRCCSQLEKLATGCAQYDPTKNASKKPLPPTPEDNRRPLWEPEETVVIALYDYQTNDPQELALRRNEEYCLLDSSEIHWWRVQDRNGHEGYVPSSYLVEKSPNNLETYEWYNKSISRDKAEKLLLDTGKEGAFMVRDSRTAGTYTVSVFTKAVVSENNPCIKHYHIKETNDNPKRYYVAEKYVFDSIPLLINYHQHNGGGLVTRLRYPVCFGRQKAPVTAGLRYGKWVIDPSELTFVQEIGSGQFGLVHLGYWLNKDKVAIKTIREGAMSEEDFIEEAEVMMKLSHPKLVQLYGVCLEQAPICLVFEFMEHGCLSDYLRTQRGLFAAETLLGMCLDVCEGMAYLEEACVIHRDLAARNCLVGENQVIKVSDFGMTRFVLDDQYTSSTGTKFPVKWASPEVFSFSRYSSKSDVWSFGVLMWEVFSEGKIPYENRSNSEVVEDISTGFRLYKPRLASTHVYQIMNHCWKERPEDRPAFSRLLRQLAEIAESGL
Put plainly: Binding affinity to ITK (unknown origin) assessed as dissociation constant by KINOMEscan analysis.

Data set [3] is described as follows: Plasma protein binding in human assessed as unbound fraction by rapid equilibrium dialysis method. Type of data set: ADME, cell-free. A general note: In equilibrium dialysis free small molecules cross a membrane that holds back macromolecules.
The target of data set [4] is T2, Tyrosine-protein kinase BTK (Homo sapiens, UniProt Q06187). Put plainly: Inhibition of BTK in human Ramos cells assessed as target occupancy. Type of data set: cell-based.
T2 sequence (Q06187 whole entry): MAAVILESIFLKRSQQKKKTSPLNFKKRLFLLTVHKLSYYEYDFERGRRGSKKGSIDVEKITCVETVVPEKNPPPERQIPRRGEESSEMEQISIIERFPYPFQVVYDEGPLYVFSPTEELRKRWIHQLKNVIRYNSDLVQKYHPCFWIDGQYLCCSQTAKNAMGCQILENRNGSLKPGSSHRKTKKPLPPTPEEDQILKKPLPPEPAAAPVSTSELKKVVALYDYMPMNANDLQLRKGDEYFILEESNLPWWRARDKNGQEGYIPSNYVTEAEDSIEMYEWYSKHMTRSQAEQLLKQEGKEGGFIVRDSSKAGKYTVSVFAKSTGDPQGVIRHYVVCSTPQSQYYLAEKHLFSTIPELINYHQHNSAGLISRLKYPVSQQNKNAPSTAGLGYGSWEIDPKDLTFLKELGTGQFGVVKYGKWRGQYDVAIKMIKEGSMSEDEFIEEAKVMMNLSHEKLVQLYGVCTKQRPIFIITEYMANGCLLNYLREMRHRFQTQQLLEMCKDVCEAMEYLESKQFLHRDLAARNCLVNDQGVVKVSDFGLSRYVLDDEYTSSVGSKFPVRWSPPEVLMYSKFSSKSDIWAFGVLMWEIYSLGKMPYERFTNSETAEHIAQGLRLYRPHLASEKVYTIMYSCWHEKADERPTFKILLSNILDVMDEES
The nature of data set [5]: Kinetic aqueous solubility of the compound at pH 6.8 by shake flask assay. Type of data set: physicochemical. Particulars: read-out: Kinetic_solubility.
Data set [6] has as its target T2, Tyrosine-protein kinase BTK. Put plainly: Inhibition of BTK (unknown origin).
Data set [7] has the same target. Put plainly: Binding affinity to BTK (unknown origin) assessed as dissociation constant by KINOMEscan analysis.
Data set [8] can be described thus: Volume of distribution at steady state in iv dosed Sprague-Dawley rat. Type of data set: ADME, organism-based. Particulars: in vivo, read-out: Vdss.
Data set [9] concerns the target Voltage-gated inwardly rectifying potassium channel KCNH2 (Homo sapiens, UniProt Q12809). Put plainly: Inhibition of hERG. Type of data set: toxicity. For orientation: Block of hERG is tested as a sign of cardiac risk.
Data set [10] is described as follows: Kinetic aqueous solubility of the compound at pH 1.5 by shake flask assay. Type of data set: physicochemical. Particulars: read-out: Kinetic_solubility.
For data set [11], the target named is Cytochrome P450 2D6 (Homo sapiens, UniProt P10635). As to the kind of experiment: Inhibition of human CYP2D6. Type of data set: ADME.
Cytochrome P450 2D6, sequence (P10635 whole entry): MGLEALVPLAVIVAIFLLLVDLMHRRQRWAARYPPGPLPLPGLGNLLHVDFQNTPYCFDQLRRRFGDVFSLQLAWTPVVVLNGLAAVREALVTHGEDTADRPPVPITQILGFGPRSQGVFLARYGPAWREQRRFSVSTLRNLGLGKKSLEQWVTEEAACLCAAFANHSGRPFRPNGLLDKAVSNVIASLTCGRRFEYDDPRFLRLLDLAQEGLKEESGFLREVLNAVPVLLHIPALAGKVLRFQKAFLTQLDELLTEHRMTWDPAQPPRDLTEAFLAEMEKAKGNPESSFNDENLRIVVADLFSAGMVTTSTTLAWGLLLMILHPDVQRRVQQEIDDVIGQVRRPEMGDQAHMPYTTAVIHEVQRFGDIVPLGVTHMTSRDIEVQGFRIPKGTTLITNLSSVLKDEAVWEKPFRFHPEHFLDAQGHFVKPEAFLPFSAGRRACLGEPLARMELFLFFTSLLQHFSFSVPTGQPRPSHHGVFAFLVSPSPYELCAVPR
The target in data set [12] is Cytochrome P450 3A4 (Homo sapiens, UniProt P08684). Put plainly: Inhibition of human CYP3A4. Type of data set: ADME.
Cytochrome P450 3A4, sequence (P08684 whole entry): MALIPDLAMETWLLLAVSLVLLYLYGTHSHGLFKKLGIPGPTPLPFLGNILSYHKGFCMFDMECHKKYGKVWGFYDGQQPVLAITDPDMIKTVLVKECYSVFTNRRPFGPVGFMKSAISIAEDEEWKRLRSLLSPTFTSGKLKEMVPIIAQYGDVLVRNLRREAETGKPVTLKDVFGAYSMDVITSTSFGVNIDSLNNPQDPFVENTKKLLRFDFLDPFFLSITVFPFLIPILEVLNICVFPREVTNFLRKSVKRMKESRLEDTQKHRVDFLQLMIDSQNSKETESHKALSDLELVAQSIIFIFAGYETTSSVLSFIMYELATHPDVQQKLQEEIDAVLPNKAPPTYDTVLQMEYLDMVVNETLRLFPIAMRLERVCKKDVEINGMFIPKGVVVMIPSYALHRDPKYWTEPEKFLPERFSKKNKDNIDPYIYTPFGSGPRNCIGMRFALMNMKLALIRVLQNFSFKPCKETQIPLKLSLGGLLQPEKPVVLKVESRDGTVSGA
Data set [13] can be described thus: Plasma protein binding in rat assessed as unbound fraction by rapid equilibrium dialysis method. Type of data set: ADME, cell-free.
The nature of data set [14]: Metabolic stability in human liver microsomes assessed as intrinsic clearance. Type of data set: ADME, Microsome. Particulars: read-out: CLH. For orientation: Liver microsomes are a subcellular fraction often used to study metabolism.
Data set [15] deals with Cytochrome P450 2C9 (Homo sapiens, UniProt P11712). As to the kind of experiment: Inhibition of human CYP2C9. Type of data set: ADME.
Cytochrome P450 2C9, sequence (P11712 whole entry): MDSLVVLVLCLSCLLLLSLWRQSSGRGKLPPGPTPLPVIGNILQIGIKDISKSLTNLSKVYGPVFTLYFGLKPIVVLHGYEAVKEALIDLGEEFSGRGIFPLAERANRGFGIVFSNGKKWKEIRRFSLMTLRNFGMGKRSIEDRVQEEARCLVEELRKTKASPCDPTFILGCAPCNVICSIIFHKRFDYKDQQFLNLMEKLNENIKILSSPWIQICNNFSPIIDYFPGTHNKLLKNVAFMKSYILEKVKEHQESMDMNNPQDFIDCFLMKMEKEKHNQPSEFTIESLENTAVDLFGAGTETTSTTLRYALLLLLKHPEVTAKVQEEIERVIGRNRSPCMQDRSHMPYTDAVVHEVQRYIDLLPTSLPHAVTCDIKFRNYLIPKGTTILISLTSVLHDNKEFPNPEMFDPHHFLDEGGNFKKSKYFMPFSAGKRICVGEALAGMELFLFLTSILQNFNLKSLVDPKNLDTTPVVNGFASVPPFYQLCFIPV
Data set [16] has as its target T3, Tyrosine-protein kinase Tec (Homo sapiens, UniProt P42680).
T3 sequence (P42680 whole entry): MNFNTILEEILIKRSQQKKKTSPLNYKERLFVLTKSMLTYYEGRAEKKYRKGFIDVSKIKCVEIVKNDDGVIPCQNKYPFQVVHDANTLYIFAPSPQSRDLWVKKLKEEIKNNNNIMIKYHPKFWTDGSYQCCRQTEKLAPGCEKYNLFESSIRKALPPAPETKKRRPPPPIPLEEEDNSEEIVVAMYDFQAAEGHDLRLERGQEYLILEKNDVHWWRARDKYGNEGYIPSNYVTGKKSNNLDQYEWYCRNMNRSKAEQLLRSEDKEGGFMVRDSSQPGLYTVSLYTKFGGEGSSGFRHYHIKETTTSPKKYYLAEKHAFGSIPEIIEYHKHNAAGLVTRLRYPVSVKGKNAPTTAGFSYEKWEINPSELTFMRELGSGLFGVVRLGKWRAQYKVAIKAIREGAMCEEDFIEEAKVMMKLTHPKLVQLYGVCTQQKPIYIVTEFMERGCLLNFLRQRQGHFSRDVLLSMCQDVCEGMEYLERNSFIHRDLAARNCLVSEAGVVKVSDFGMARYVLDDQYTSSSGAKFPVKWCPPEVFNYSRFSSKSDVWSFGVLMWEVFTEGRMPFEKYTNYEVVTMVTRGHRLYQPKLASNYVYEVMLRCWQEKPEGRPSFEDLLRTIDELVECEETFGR
As to the kind of experiment: Binding affinity to TEC (unknown origin) assessed as dissociation constant by KINOMEscan analysis.

In data set [17] the target is Receptor tyrosine-protein kinase erbB-2 (Homo sapiens, UniProt P04626). As to the kind of experiment: Binding affinity to ERBB2 (unknown origin) assessed as dissociation constant by KINOMEscan analysis.
Receptor tyrosine-protein kinase erbB-2, sequence (P04626 whole entry): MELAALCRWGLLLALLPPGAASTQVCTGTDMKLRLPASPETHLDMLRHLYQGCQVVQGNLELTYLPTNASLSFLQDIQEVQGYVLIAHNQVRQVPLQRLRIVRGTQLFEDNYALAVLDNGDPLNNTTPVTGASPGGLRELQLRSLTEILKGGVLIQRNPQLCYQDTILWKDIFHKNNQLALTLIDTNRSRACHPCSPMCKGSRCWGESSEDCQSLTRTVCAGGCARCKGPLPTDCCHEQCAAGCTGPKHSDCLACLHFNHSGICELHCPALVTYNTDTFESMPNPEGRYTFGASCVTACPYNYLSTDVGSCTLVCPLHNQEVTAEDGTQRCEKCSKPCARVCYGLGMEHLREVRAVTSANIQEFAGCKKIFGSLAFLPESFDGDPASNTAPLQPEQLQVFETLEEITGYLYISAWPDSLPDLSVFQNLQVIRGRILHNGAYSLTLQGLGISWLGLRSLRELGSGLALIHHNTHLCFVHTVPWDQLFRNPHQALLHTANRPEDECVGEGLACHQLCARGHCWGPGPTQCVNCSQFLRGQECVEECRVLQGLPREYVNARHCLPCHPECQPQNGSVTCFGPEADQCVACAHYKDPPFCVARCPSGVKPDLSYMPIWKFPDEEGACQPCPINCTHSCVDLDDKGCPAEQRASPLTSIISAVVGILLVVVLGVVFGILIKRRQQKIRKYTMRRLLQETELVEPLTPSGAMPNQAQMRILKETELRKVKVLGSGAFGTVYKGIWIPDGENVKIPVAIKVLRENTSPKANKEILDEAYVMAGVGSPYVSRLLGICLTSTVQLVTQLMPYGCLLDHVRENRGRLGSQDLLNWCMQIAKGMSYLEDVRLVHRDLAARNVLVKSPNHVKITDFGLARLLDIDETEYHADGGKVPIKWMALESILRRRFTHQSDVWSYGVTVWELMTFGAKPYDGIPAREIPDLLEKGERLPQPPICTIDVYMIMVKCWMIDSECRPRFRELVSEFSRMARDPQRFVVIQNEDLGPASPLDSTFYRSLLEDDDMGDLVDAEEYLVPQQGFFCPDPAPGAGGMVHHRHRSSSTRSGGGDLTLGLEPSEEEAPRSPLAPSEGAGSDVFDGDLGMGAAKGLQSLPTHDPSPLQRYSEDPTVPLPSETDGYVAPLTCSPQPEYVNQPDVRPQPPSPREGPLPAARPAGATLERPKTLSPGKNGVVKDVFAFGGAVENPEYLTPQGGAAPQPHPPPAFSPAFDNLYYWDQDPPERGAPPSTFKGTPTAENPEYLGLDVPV
Data set [18] deals with T4, Cytochrome P450 1A2 (Homo sapiens, UniProt P05177).
T4 sequence (P05177 whole entry): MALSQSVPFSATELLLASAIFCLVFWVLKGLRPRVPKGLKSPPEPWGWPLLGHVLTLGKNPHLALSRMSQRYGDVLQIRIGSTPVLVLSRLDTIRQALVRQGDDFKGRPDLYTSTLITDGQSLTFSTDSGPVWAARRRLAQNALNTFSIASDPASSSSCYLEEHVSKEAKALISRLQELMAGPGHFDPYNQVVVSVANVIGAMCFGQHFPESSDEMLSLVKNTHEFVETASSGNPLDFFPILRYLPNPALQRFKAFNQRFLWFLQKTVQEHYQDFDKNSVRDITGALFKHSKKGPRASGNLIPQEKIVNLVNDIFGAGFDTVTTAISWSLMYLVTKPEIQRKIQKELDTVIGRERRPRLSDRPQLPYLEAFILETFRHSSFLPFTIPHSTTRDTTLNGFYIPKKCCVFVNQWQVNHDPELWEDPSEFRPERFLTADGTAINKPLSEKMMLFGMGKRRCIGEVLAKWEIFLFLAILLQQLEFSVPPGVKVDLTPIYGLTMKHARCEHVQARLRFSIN
As to the kind of experiment: Inhibition of human CYP1A2. Type of data set: ADME.

Voltage-gated inwardly rectifying potassium channel KCNH2, sequence (Q12809 whole entry): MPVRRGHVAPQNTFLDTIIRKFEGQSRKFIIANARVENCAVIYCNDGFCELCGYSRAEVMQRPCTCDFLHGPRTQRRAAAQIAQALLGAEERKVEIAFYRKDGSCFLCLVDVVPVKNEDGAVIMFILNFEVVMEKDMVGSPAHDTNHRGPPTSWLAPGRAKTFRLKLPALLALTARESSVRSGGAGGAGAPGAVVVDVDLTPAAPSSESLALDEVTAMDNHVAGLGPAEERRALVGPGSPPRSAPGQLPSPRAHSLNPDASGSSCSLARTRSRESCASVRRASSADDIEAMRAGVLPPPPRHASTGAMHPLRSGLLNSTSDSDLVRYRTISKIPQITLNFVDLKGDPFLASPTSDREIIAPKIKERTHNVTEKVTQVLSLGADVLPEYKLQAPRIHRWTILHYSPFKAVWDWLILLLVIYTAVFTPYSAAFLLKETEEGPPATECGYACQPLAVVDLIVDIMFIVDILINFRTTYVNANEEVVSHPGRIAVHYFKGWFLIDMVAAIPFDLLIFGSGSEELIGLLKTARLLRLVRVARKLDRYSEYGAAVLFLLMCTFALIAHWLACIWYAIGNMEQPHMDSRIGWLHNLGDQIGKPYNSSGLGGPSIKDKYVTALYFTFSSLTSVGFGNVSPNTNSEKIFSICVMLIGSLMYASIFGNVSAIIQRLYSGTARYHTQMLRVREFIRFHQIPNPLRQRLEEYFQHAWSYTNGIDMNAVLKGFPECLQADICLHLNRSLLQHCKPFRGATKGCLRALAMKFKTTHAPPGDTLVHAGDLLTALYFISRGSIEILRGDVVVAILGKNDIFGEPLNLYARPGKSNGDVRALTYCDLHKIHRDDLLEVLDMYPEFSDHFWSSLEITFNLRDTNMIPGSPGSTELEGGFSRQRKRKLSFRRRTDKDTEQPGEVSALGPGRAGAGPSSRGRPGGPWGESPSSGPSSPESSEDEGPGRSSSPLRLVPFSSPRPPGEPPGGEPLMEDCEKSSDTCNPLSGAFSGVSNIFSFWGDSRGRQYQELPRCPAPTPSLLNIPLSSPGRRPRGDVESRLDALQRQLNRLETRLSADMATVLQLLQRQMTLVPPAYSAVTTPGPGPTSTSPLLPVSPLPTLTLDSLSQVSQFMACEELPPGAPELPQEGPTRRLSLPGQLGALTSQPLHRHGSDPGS

The compound `C=CC(=O)N(C)CCOc1c(N)ncnc1-c1ccc(CN2CCN(CC(C)C)CC2=O)c(C)c1` gave a clearance in data set [1] of 126 mL/min/kg. Besides, the Kd is 30 µM in data set [2], 0.00091 µM in data set [7], 0.24 µM in data set [16] and 20 µM in data set [17]. The fraction unbound in data set [3] amounted to 0.227; in data set [13], 0.169. Moreover, the half-maximal inhibitory concentration (IC50) in data set [4] was 0.0031 µM; in data set [6], 0.00022 µM; in data set [9] it was over 60 µM; in data set [11] it was over 10 µM; in [12], over 10 µM; in [15] it was over 10 µM. Further, the IC50 in data set [18] was over 10 µM. For the same compound, the solubility kinetic stood at 49 µg/mL (≈ 102 µM) in [5] and 73 µg/mL (≈ 152 µM) in data set [10]. Also, the Vd in data set [8] was found to be 126 L/kg. Besides, the CLint scaled in data set [14] is 66 mL/min/kg.
